The values below come from patent US20110230497A1, “BIOLOGICALLY ACTIVE AMIDES” (H. Lundbeck A/S, priority 2008, published 2011).

Experiment [1] has as its target T1, NPY Y5 receptor (Homo sapiens, UniProt Q15761).
T1 sequence (Q15761 1-445): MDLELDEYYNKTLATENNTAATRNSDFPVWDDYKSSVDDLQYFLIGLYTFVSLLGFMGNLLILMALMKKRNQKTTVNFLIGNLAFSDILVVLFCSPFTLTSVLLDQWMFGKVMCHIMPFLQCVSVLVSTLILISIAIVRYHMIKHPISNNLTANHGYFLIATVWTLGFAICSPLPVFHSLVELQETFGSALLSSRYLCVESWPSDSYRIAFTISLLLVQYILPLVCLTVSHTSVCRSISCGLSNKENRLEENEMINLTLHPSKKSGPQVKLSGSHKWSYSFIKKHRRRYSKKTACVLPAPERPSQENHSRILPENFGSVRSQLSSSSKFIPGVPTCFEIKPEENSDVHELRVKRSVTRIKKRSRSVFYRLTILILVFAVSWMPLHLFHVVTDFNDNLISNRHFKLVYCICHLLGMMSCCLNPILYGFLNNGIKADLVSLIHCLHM
In words: Radioligand (125I-PYY) binding to membrane suspensions, cloned human NPY Y5 receptor. The conditions noted are these: 125I-PYY competition binding, membranes of transfected cells; read-out: Ki (nM), binding affinity of selected compounds. The arrangement: expressed in transfected cells; host or cells: LM(tk-) cells (typically). How it is done: The pharmacological properties of the compounds of the present invention were evaluated at the cloned human NPY Y5 receptor using the protocols disclosed in U.S. Pat. No. 6,124,331, the contents of which are hereby incorporated by reference, or in an assay as similarly described therein for NPY Y5 binding activity. The procedures for cell culture, transient transfection and membrane harvest, which are well known in the art, are described therein
Briefly, membrane suspensions from transfected cells (typically expressed in LM(tk-) cells) and ^125I-PYY radioligand (PerkinElmer, Waltham, Mass.) were diluted in binding buffer supplemented with 0.1% bovine serum albumin to yield an optimal membrane protein concentration so that ^125I-PYY bound by membranes in the assay was less than 10% of ^125I-PYY delivered to the sample (100,000 dpm/sample=0.08 nM for competition binding assays). Test compounds were diluted to desired concentrations with supplemented binding buffer in the presence of 30% DMSO. The binding assay was performed in 96-well polypropylene microtiter plates by mixing ^125I-PYY, test compound (25 μL), and finally, membrane suspensions (200 μL). Final DMSO=3%. Samples were incubated in at room temperature for about 120 min. Incubations were terminated by filtration over Whatman GF/C filters (pre-coated with 1% polyethyleneimine and air-dried before use), followed by washing with ice-cold binding buffer. Filter-trapped membranes were impregnated with MeltiLex solid scintillant (Wallac, Turku, Finland) and counted for ^125I-PYY in a Wallac MicroBeta Trilux. Non-specific binding was defined by 1000 nM porcine NPY. Specific binding was typically 80%; most non-specific binding was associated with the filter. Binding data were analyzed using nonlinear regression and statistical techniques available in the GraphPAD Prism package (San Diego, Calif.).

The target of experiment [2] is T1, NPY Y5 receptor. Nature of the experiment: NPY Y5-dependent inhibition of forskolin-stimulated cAMP accumulation. It counts as cell-based. The arrangement: expressed in transfected cells. To be noted: effect on agonist (NPY) activity, cAMP HTRF. How it is done: Stably transfected cells were seeded into 96-well microtiter plates and cultured until confluent. To reduce the potential for receptor desensitization, the serum component of the media was reduced to 1.5% for 4 to 16 hours before the assay. Cells were washed in […], or HBS (150 mM NaCl, 20 mM HEPES, 1 mM CaCl2, 5 mM KCl, 1 mM MgCl2, and 10 mM glucose) supplemented with 0.1% bovine serum albumin plus 100 uM IBMX. Test compounds were diluted to desired concentrations with assay buffer in the presence of 10% DMSO, then transferred to the cell plate and allowed to incubate for 20 min at 37° C. in 5% CO2 (final DMSO=1%). Cells were then stimulated with NPY (up to 10 uM) for a period of 5 min, followed by forskolin (10 uM) for another 5 min. The assay was then terminated and intracellular cAMP was quantified by with highthroughput time-resolved fluorometry (HTRF kit from CisBio, Bedford, Mass.). The effect of the test compound on agonist (NPY) activity were analyzed using nonlinear regression and statistical techniques available in the GraphPAD Prism package (San Diego, Calif.).
For orientation: Changes in cAMP serve as a functional read-out for many G protein-coupled receptors.

Regarding `O=C(CC1CCN2C(=O)OCC2C1)Nc1cnc(-c2cc(F)cc(F)c2)cn1` (centres unmarked) [Example 3l, N-[5-(3,5-Difluoro-phenyl)-pyrazin-2-yl]-2-(3-oxo-hexahydro-oxazolo[3,4-a]pyridin-7-yl)-acetamide], the Ki on NPY Y5 receptor [1] came to 25 nM. For `CC(=O)N1CCC(C(C)(C)C(=O)Nc2ccc(-c3cc(F)cc(F)c3)cn2)CC1` [Example 4a, 2-(1-Acetyl-piperidin-4-yl)-N-[5-(3,5-difluoro-phenyl)-pyridin-2-yl]-isobutyramide], the “function at the NPY Y5 receptor” value on NPY Y5 receptor [2] is “antagonists”. Besides, the Ki at NPY Y5 receptor [1] stood at 66 nM. On to `O=C(C[C@H]1CCN2C(=O)OC[C@H]2C1)Nc1ccc(-c2cc(F)cc(F)c2)cn1` [Example 3o, N-[5-(3,5-Difluoro-phenyl)-pyridin-2-yl]-2-((7S,8aR)-3-oxo-hexahydro-oxazolo[3,4-a]pyridin-7-yl)-acetamide], for which the inhibition constant (Ki) at NPY Y5 receptor [1] was 17 nM. Same read-out and setting: the figure for `CC(=O)N1CCC(CC(=O)Nc2ccc(-c3ccccc3)cc2)CC1` [Example 5a, 2-(1-Acetyl-piperidin-4-yl)-N-biphenyl-4-yl-acetamide] is 120 nM. Still for that read-out and setting: the figure for `O=C(c1ccccn1)N1CCC(C2(C(=O)Nc3ccc(-c4cc(F)cc(F)c4)cc3)CC2)CC1` [Example 5m] is 14 nM; for `O=C(C[C@H]1CCN2C(=O)OC[C@H]2C1)Nc1cc(-c2cccc(C(F)(F)F)c2)no1` [Example 3hh, 2-((7S,8aR)-3-oxo-hexahydro-oxazolo[3,4-a]pyridin-7-yl)-N-[3-(3-trifluoromethyl-phenyl)-isoxazol-5-yl]-acetamide] it is 39 nM; for `CC(=O)N1CCN(CC(=O)Nc2ccc(-c3cc(F)cc(F)c3)cn2)CC1` [Example 1a, 2-(4-Acetyl-piperazin-1-yl)-N-[5-(3,5-difluoro-phenyl)-pyridin-2-yl]-acetamide] it is 220 nM. For the molecule `O=C(C1CCC1)N1CCC(C2(C(=O)Nc3ccc(-c4cc(F)cc(F)c4)cc3)CC2)CC1` [Example 5j], the Ki on NPY Y5 receptor [1] came out at 2.7 nM.

For the molecule `O=C(C[C@H]1CCN2C(=O)OC[C@H]2C1)Nc1ccn(-c2ccc(Cl)cc2F)n1` [Example 3cc, N-[1-(4-Chloro-2-fluoro-phenyl)-1H-pyrazol-3-yl]-2-((7S,8aR)-3-oxo-hexahydro-oxazolo[3,4-a]pyridin-7-yl)-acetamide], the Ki at NPY Y5 receptor [1] was found to be 8 nM. Take `CC(=O)N1CCC(CC(=O)Nc2ccc(-c3cc(F)cc(F)c3)cn2)CC1` [Example 2a, 2-(1-Acetyl-piperidin-4-yl)-N-[5-(3,5-difluoro-phenyl)-pyridin-2-yl]-acetamide]: the “function at the NPY Y5 receptor” value on NPY Y5 receptor [2] is given as “antagonists”. In addition, the Ki on NPY Y5 receptor [1] is 46 nM. For the molecule `O=C(C[C@H]1CCN2C(=O)CC[C@H]2C1)Nc1ccc(-c2cc(F)cc(F)c2)cn1` [Example 3a], the Ki at NPY Y5 receptor [1] was found to be 36 nM. The same measure, in the same setting: then `CS(=O)(=O)N1CCC(CC(=O)Nc2ccc(-c3cc(F)cc(F)c3)nc2)CC1` [Example 2aj, N-[6-(3,5-Difluoro-phenyl)-pyridin-3-yl]-2-(1-methanesulfonyl-piperidin-4-yl)-acetamide], with 28 nM; and `CC(=O)N1CCN(CC(=O)Nc2ccc(-c3cc(F)cc(F)c3)cn2)C[C@@H]1C` [Example 1e, 2-((S)-4-Acetyl-3-methyl-piperazin-1-yl)-N-[5-(3,5-difluoro-phenyl)-pyridin-2-yl]-acetamide], with 120 nM. Take `CC1(C)OC(=O)N2CCC(CC(=O)Nc3ccn(-c4ccccc4F)n3)CC21` (centres unmarked) [Example 3i, 2-(1,1-Dimethyl-3-oxo-hexahydro-oxazolo[3,4-a]pyridin-7-yl)-N-[1-(2-fluoro-phenyl)-1H-pyrazol-3-yl]-acetamide]: the Ki on NPY Y5 receptor [1] is 50 nM. On the same count and under the same terms, the figure for `Cn1nccc1C(=O)N1CCC(C(C)(C)C(=O)Nc2ccc(-c3cc(F)cc(F)c3)cn2)CC1` [Example 5q, N-[5-(3,5-Difluoro-phenyl)-pyridin-2-yl]-2-[1-(2-methyl-2H-pyrazole-3-carbonyl)-piperidin-4-yl]-isobutyramide] is 570 nM.

For orientation: Ki means the dissociation constant of the complex between target and ligand, obtained from inhibition or displacement.
